Test results: patent US9701962B2, “Hydrophobically modified antisense oligonucleotides comprising a ketal group” (Institut National de la Sante et de la Recherche Medicale …, priority 2013, dated 2017)
Strand notation (5' to 3'): a small letter for the sugar, then the base; units joined by * are phosphorothioate-linked, units joined directly phosphodiester-linked; [ ] holds rarer units or linkages, { } end groups; capitals alone tell only the bases. {(C15)2U} = uridine bearing a ketal whose carbon carries two C15 hydrocarbon chains (palmitone ketal); {C8F17} = hydrophobic mono-chain with C8F17 fluorocarbon moiety; d = 2'-deoxy (DNA)

Key:
[1] = test system: TCTP protein and cell growth; experiment: Screening of ASOs targeting TCTP mRNA for the lead sequence; type: cell-based, human; conditions: 15 sequences tested
Protocol: The design, synthesis and screening of ASOs targeting TCTP mRNA were performed to determine the lead sequence. Among the 27 sequences, 12 were withdrawn (lack of specificity, high GC percentage) and 15 have been tested among which, 3 have been selected (#10 of sequence SEQ ID NO: 2, #14 of sequence SEQ ID NO: 7, #15 of sequence SEQ ID NO: 6) for their efficiency to inhibit TCTP protein and cell growth.

cell membrane = experiment: Penetration of the cell membrane; type: cell-based; conditions: compared with ASO#15PTO
TCTP protein = TCTP protein expression by western blot in transfected PC-3 cells; type: cell-based, human; conditions: for inhibition of TCTP protein expression over a long period: 6 days after transfection
Protocol: The CR prostate cancer cell line PC-3 was purchased from the American Type Culture Collection (Rockville, Md., USA). The cells were maintained in Dulbecco's Modified Eagle's Medium (Invitrogen, Cergy Pontoise, France), supplemented with 10% fetal calf serum (FCS).
Prostatic cell line were transfected with ASO#15PD, ASO#15PTO, LASO#15PD, LASO#15PTO and LASO#15LNA at various concentrations (from 30 nM to 100 nM), in OptiMEM® medium (Invitrogen), without serum and in the presence or not of Oligofectamine™ transfection reagent (Invitrogen), according to the manufacturer's instructions.
Serum was added 4 hours after transfection. Two or three days after transfection, the level of TCTP protein expression and GAPDH (used as housekeeping gene) were determined by performing western blotting.
Western Blot analysis was performed as described previously (Rocchi et al., 2004, Cancer Res. 64:6595-602) with 1:2000 rabbit TCTP polyclonal antibody (Abcam Inc., Cambridge, UK). Loading levels were normalized using 1:5000 rabbit anti-glyceraldehyde-3-phosphate dehydrogenase polyclonal (Abcam Inc.).
Prostatic cell line were transfected with FASO#15PTO at 100 nM, in OptiMEM® medium (Invitrogen), without serum and in the presence or not of Oligofectamine™ transfection reagent (Invitrogen), according to the manufacturer's instructions.

| Substance | efficiency to inhibit TCTP protein and cell growth [1] | inhibition of TCTP protein expression over a long period (TCTP protein) | further results |
| --- | --- | --- | --- |
| 5′-AACTTGTTTCCTGCAGGTGA-3′ (antisense (5'-AACTTGTTTCCTGCAGGTGA-3'); as printed in the source, key not given here) [#15] | selected | – | – |
| 5′-ACCAATGAGCGAGTCATCAA-3′ (antisense (5'-ACCAATGAGCGAGTCATCAA-3'); as printed in the source, key not given here) [#10] | selected | – | – |
| 5′-TGGTTCATGACAATATCGAC-3′ (antisense (5'-TGGTTCATGACAATATCGAC-3'); as printed in the source, key not given here) [#14] | selected | – | – |
| (C15)2U*5′AAC TTG TTT CCT GCA GGT GA3′ (DNA {(C15)2U}*dA*dA*dC*dT*dT*dG*dT*dT*dT*dC*dC*dT*dG*dC*dA*dG*dG*dT*dG*dA) [LASO#15PTO] | – | strong to complete inhibition | speed of penetrating the cell membrane (cell membrane): more quickly than ASO#15PTO; inhibition of TCTP protein expression (TCTP protein; PC-3, in absence of transfection agent, 3 days after transfection): able to inhibit; inhibition of TCTP protein expression (TCTP protein; PC-3, in the presence of Oligofectamine, 30-100 nM, 2 or 3 days after transfection): most efficient |
| ASO#15PTO: DNA of sequence SEQ ID NO: 6 with a phosphorothiorate backbone (DNA dA*dA*dC*dT*dT*dG*dT*dT*dT*dC*dC*dT*dG*dC*dA*dG*dG*dT*dG*dA) [reference compound] | – | not the case | – |
| Flurocarbon 5′AAC TTG TTT CCT GCA GGT GA3′ (DNA {C8F17}-dA*dA*dC*dT*dT*dG*dT*dT*dT*dC*dC*dT*dG*dC*dA*dG*dG*dT*dG*dA) [FASO#15PTO, reference compound] | – | – | inhibition of TCTP protein expression (TCTP protein; PC-3, 100 nM, absence of Oligofectamine, 3 days after transfection): incapable of inhibiting; inhibition of TCTP protein expression (TCTP protein; PC-3, 100 nM, presence of Oligofectamine, 3 days after transfection): incapable of inhibiting |
